Where two headings read alike, the source gives them in different places.
How the values were obtained:
[1] = tested on: H1N1 influenza virus A/Jena/8178/09 (Jena/8178); test: CPE inhibition assay with Jena/8178 in MDCK cells; format: cell-based; conditions: for selectivity index IAV Jena/8178 [CC50/IC50]: CC50 in MDCK cells / IC50 Jena/8178; for IC50: Influenza A virus, H1N1, MDCK, 48 h, read-out: IC50 of CPE IAV Jena/8178
in vitro = conditions: dog
[2] = tested on: H3N2 influenza virus A/Hong Kong/68 (HK/68); test: CPE inhibition assay with HK/68 in MDCK cells; format: cell-based; conditions: for selectivity index IAV HK/68 [CC50/IC50]: CC50 in MDCK cells / IC50 HK/68; for IC50: Influenza A virus; for anti-influenza virus activity (in words): HK/68 and Jena/8178, CPE inhibition in MDCK cells
[3] = H3N2, MDCK, 48 h, read-out: IC50 of CPE IAV HK/68
[4] = H3N2, HK/68 and Jena/8178 together, CPE inhibition in MDCK cells, read-out: IC50 values, anti-influenza virus activity stated for both strains together
[5] = HK/68 and Jena/8178 together, CPE inhibition in MDCK cells

Structure (SMILES)	selectivity index IAV Jena/8178 [CC50/IC50] [1]	IC50 [1] [µM]	CC50 at 72 h (in vitro) [µM]	selectivity index IAV HK/68 [CC50/IC50] [2]	IC50 [2, 3] [µM]	IC50 [2, 4] [µM]	CC50 (in vitro) [µM]	anti-influenza virus activity (in words) [2]	IC50 values, anti-influenza virus activity stated for both strains together [2, 5]	CC50 in MDCK cells (MDCK cells)
C[C@H]1O[C@H](O[C@H]2[C@H](O[C@H]3[C@H](O[C@H]4CC[C@]5(C)[C@H]6CC=C7[C@@H]8CC(C)(C)[C@H](OC(=O)/C=C/c9ccccc9)C[C@]8(C(=O)O)CC[C@@]7(C)[C@]6(C)CC[C@H]5C4(C)C)OC[C@@H](O)[C@@H]3O)OC[C@@H](O)[C@@H]2O)[C@@H](O)[C@@H](O)[C@@H]1O [Compound 7, 3-O-α-L-Rhamnopyranosyl-(1→2)-β-D-xylopyranosyl-(1→2)-β-D-xylopyranosyl-21-cinnamoyloxyoleanolic acid]	6	0.27 ± 0.13	1.5 ± 0.8	31	0.05 ± 0.02	0.05 to 0.27	–	–	–	–
C=C(C)[C@@H]1CC[C@]2(C(=O)O)CC[C@]3(C)[C@H](CC[C@@H]4[C@@]5(C)C[C@@H](O)[C@H](O[C@@H]6O[C@H](CO)[C@@H](O)[C@H](O)[C@H]6O[C@@H]6OC[C@@H](O)[C@H](O)[C@H]6O)C(C)(C)[C@@H]5CC[C@]43C)[C@@H]12 [Compound 1, 3-O-β-D-Xylopyranosyl-(1→2)-β-D-glucopyranosylalphitolic acid]	–	38.6 ± 15.7	–	–	–	–	> 100	only weak or no anti-influenza virus activity	–	–
CCOC(=O)C1=C[C@@H](OC(CC)CC)[C@H](NC(C)=O)[C@@H](N)C1 [oseltamivir, reference compound]	–	0.064 ± 0.013	–	–	0.003 ± 0.001	–	–	–	–	–
CC1(C)CC[C@]2(C(=O)O)CC[C@]3(C)C(=CC[C@@H]4[C@@]5(C)C[C@@H](O)[C@H](O)C(C)(C)[C@@H]5CC[C@]43C)[C@@H]2C1 [maslinic acid]	–	–	23.3 ± 2.93	–	–	–	–	–	–	–
C[C@H]1O[C@@H](O[C@H]2[C@H](O)[C@@H](O[C@@H]3OC[C@@H](O)[C@H](O)[C@H]3O)[C@H](O[C@H]3[C@H](O)C[C@]4(C)[C@H]5CC=C6[C@@H]7CC(C)(C)[C@H](OC(=O)/C=C/c8ccccc8)C[C@]7(C(=O)O)CC[C@@]6(C)[C@]5(C)CC[C@H]4C3(C)C)O[C@@H]2CO)[C@@H](O)[C@@H](O)[C@@H]1O [Compound 6, 3-O-β-D-Xylopyranosyl-(1→2)-[α-L-rhamnopyranosyl-(1→4)]-β-D-glucopyranosyl-21-cinnamoyloxymaslinic acid]	3	1.8 ± 0.03	5.8 ± 0.69	3	1.8 ± 0.23	–	–	–	low micromolar range	–
C[C@H]1O[C@H](O[C@@H]2CO[C@@H](O[C@H]3CC[C@]4(C)[C@H]5CC=C6[C@@H]7CC(C)(C)[C@H](OC(=O)/C=C/c8ccccc8)C[C@]7(C(=O)O)CC[C@@]6(C)[C@]5(C)CC[C@H]4C3(C)C)[C@H](O[C@@H]3OC[C@@H](O)[C@H](O)[C@H]3O[C@H]3O[C@H](C)[C@@H](O)[C@H](O)[C@@H]3O)[C@H]2O)[C@@H](O)[C@@H](O)[C@@H]1O [Compound 8, 3-O-α-L-Rhamnopyranosyl-(1 →2)-β-D-xylopyranosyl-(1 →2)-[α-L-rhamnopyranosyl-(1 →4)]-β-D-xylopyranosyl-21-cinnamoyloxyoleanolic acid]	7	0.16 ± 0.07	1.2 ± 0.1	7	0.17 ± 0.18	0.05 to 0.27	–	–	–	–
C=C(C)[C@@H]1CC[C@]2(C(=O)O)CC[C@]3(CO)[C@H](CC[C@@H]4[C@@]5(C)C[C@@H](O)[C@H](O[C@@H]6O[C@H](CO)[C@@H](O)[C@H](O)[C@H]6O[C@@H]6O[C@H](CO)[C@@H](O)[C@H](O)[C@H]6O)C(C)(C)[C@@H]5CC[C@]43C)[C@@H]12 [Compound 4, 3-O-β-D-Glucopyranosyl-(1→2)-β-D-glucopyranosyl-27-hydroxyalphitolic acid]	>2	43 ± 11.8	–	–	–	–	> 100	only weak or no anti-influenza virus activity	–	–
C=C(C)[C@@H]1CC[C@]2(C(=O)O)CC[C@]3(C)[C@H](CC[C@@H]4[C@@]5(C)C[C@@H](O)[C@H](O)C(C)(C)[C@@H]5CC[C@]43C)[C@@H]12 [alphitolic acid]	–	–	49.9 ± 6.68	–	–	–	–	–	–	–
CC1(C)C[C@H]2C3=CC[C@@H]4[C@@]5(C)CC[C@H](O)C(C)(C)[C@@H]5CC[C@@]4(C)[C@]3(C)CC[C@@]2(C(=O)O)C[C@H]1OC(=O)/C=C/c1ccccc1 [21-cinnamoyloxy-oleanolic acid]	–	6.8 ± 4.12	> 100	–	8.9 ± 3.95	7 to 11	–	–	–	lost their cytotoxicity
C=C(C)[C@@H]1CC[C@]2(C(=O)O)CC[C@]3(CO)[C@H](CC[C@@H]4[C@@]5(C)C[C@@H](O)[C@H](O[C@@H]6O[C@H](CO)[C@@H](O)[C@H](O)[C@H]6O[C@@H]6OC[C@@H](O)[C@H](O)[C@H]6O)C(C)(C)[C@@H]5CC[C@]43C)[C@@H]12 [Compound 3, 3-O-β-D-Xylopyranosyl-(1→2)-β-D-glucopyranosyl-27-hydroxyalphitolic acid]	–	–	–	–	–	–	> 100	only weak or no anti-influenza virus activity	–	–
C[C@H]1O[C@@H](O[C@H]2[C@H](O)[C@@H](O[C@@H]3OC[C@@H](O)[C@H](O)[C@H]3O)[C@H](O[C@H]3[C@H](O)C[C@]4(C)[C@H]5CC=C6[C@@H]7CC(C)(C)CC[C@]7(C(=O)O)CC[C@@]6(C)[C@]5(C)CC[C@H]4C3(C)C)O[C@@H]2CO)[C@@H](O)[C@@H](O)[C@@H]1O [Compound 5, 3-O-β-D-Xylopyranosyl-(1→2)-[α-L-rhamnopyranosyl-(1→4)]-β-D-glucopyranosylmaslinic acid]	–	–	15.5 ± 1.69	9	1.7 ± 0.07	–	–	–	low micromolar range	–
C=C(C)[C@@H]1CC[C@]2(C(=O)O)CC[C@]3(CO)[C@H](CC[C@@H]4[C@@]5(C)C[C@@H](O)[C@H](O)C(C)(C)[C@@H]5CC[C@]43C)[C@@H]12 [27-hydroxyalphitolic acid]	>4	26.5 ± 4.71	–	–	–	–	> 100	–	–	–
C=C(C)[C@@H]1CC[C@]2(C(=O)O)CC[C@]3(C)[C@H](CC[C@@H]4[C@@]5(C)C[C@@H](O)[C@H](O[C@@H]6O[C@H](CO)[C@@H](O[C@@H]7O[C@H](C)[C@@H](O)[C@H](O)[C@@H]7O)[C@H](O)[C@H]6O[C@@H]6OC[C@@H](O)[C@H](O)[C@H]6O)C(C)(C)[C@@H]5CC[C@]43C)[C@@H]12 [Compound 2, 3-O-β-D-Xylopyranosyl-(1→2)-[α-L-rhamnopyranosyl-(1→4)]-β-D-glucopyranosylalphitolic acid]	6	1.9 ± 0.08	10.4 ± 0.52	11	1.1 ± 0.44	–	–	–	–	–
CC1(C)C[C@H]2C3=CC[C@@H]4[C@@]5(C)C[C@@H](O)[C@H](O)C(C)(C)[C@@H]5CC[C@@]4(C)[C@]3(C)CC[C@@]2(C(=O)O)C[C@H]1OC(=O)/C=C/c1ccccc1 [21-cinnamoyloxy-maslinic acid]	–	6.9 ± 2.97	> 100	–	11.3 ± 7.35	7 to 11	–	–	–	lost their cytotoxicity
